{"source": "ChEMBL document CHEMBL1649492", "about": "“Population modeling and Monte Carlo simulation study of the pharmacokinetics and antituberculosis pharmacodynamics of rifampin in lungs” (Antimicrob Agents Chemother, 2009)", "key": {"Homo sapiens": {"system": "Homo sapiens", "assay": "Volume of distribution in patient with tuberculosis at […], po administered as single dose", "format": "ADME, organism-based", "parameters": "route oral", "conditions": "in vivo"}, "[1]": {"assay": "Volume of distribution in epithelial lining fluid of patient with tuberculosis at […], po administered as single dose", "format": "ADME, organism-based", "parameters": "route oral", "conditions": "human, in vivo"}, "[2]": {"assay": "Volume of distribution in alveolar cells of patient with tuberculosis at […], po administered as single dose", "format": "ADME, organism-based, Pneumocyte", "parameters": "route oral", "conditions": "human, in vivo"}, "[3]": {"assay": "Ratio of AUC (0 to 24 hrs) to MIC in plasma of patient with Mycobacterium tuberculosis infection at […], po administered as single dose", "format": "functional"}, "[4]": {"assay": "Ratio of AUC (0 to 24 hrs) to MIC in epithelial lining fluid of patient with Mycobacterium tuberculosis infection at […], po administered as single dose", "format": "functional"}}, "note": "Where “and” joins values, the source holds several entries; their conditions need not be identical. Equal values may be shown once."}
{"smiles": "CO[C@H]1/C=C/O[C@@]2(C)Oc3c(C)c(O)c4c(O)c(c(/C=N/N5CCN(C)CC5)c(O)c4c3C2=O)NC(=O)/C(C)=C\\C=C\\[C@H](C)[C@H](O)[C@@H](C)[C@@H](O)[C@@H](C)[C@H](OC(C)=O)[C@@H]1C", "note": "[RIFAMPIN]", "values": [{"measurement": "Vd", "setting": "Homo sapiens", "result": "11.56 L and 10.16 L and 8.05 L"}, {"measurement": "Vd", "setting": "[1]", "result": "102.6 L and 102.8 L and 52.1 L"}, {"measurement": "Vd", "setting": "[2]", "result": "49.94 L and 43.66 L and 33.65 L"}, {"measurement": "RatioAUC/MIC", "setting": "[3]", "result": ">=271"}, {"measurement": "RatioAUC/MIC", "setting": "[4]", "result": ">=665"}]}
